Measurements: ChEMBL document CHEMBL1201862, “PubChem BioAssay data set” (2004)
The source made the active and inactive calls.

Assays:
[1] = molecular target: T1, Peroxisome proliferator-activated receptor gamma (Homo sapiens, UniProt P37231); test: PPARg ligand-binding domain binders, dose response, PPARg partial agonist project, biochemical, TR-FRET, LanthaScreen (AID 504446)
[2] = molecular target: Peroxisome proliferator-activated receptor alpha (Homo sapiens, UniProt Q07869); test: Late stage assay provider counterscreen for partial agonists of the peroxisome proliferator-activated receptor gamma (PPARg): Luminescence-based cell-based dose response assay for partial agonists of the peroxisome proliferator-activated receptor alpha (PPARA). [Related pubchem assays (depositor defined):AID1051, AID1300, AID1319, AID1679, AID1808, AID504446, AID504447, AID504452, AID504453, AID631]; type: functional
[3] = molecular target: T1, Peroxisome proliferator-activated receptor gamma; test: PPARg partial agonists, dose response, cell-based, luminescence, assay provider (AID 504447); type: functional
[4] = molecular target: Large T antigen (Simian virus 40, UniProt P03070); type: functional, Betapolyomavirus macacae;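 further: Confirmatory-stage PubChem screen for compounds that inhibit SV40 T antigen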
[5] = molecular target: T2, DNA dC->dU-editing enzyme APOBEC-3A (Homo sapiens, UniProt P31941); test: SAR analysis of small molecule inhibitors of APOBEC3A DNA Deaminase via a fluorescence-based single-stranded DNA deaminase assay - Set 2.; type: functional; conditions: read-out: IC50_Mean
[6] = molecular target: T3, DNA dC->dU-editing enzyme APOBEC-3G (Homo sapiens, UniProt Q9HC16); test: APOBEC3G deaminase inhibitors, SAR follow-up, biochemical, fluorescence, single-stranded DNA substrate (AID 602136); type: functional; conditions: read-out: IC50_Mean
[7] = molecular target: Intestinal-type alkaline phosphatase (Homo sapiens, UniProt P09923); test: activation of human intestinal alkaline phosphatase – biochemical, dose response (AID 488873); type: functional
[8] = molecular target: Intestinal-type alkaline phosphatase (Mus musculus, UniProt P24822); test: mouse intestinal alkaline phosphatase activators, dose response, biochemical, luminescence, uHTS hits (AID 488783); type: functional
[9] = molecular target: T3, DNA dC->dU-editing enzyme APOBEC-3G; test: SAR analysis of small molecule inhibitors of APOBEC3G DNA Deaminase via a fluorescence-based single-stranded DNA deaminase assay - Set 2.; type: functional; conditions: read-out: IC50_Mean
[10] = molecular target: Induced myeloid leukemia cell differentiation protein Mcl-1 (Homo sapiens, UniProt Q07820); type: functional
[11] = molecular target: T2, DNA dC->dU-editing enzyme APOBEC-3A; test: SAR analysis of small molecule inhibitors of APOBEC3A DNA Deaminase via a fluorescence-based single-stranded DNA deaminase assay.; type: functional; conditions: read-out: IC50_Mean
[12] = molecular target: T4, Alkaline phosphatase, tissue-nonspecific isozyme (Homo sapiens, UniProt P05186); test: TNAP enzyme activators, dose response, selectivity assay for mouse IAP activator project, biochemical, TNAP isozyme, mouse IAP uHTS hits (AID 488880); type: functional
T4 sequence (P05186 whole entry): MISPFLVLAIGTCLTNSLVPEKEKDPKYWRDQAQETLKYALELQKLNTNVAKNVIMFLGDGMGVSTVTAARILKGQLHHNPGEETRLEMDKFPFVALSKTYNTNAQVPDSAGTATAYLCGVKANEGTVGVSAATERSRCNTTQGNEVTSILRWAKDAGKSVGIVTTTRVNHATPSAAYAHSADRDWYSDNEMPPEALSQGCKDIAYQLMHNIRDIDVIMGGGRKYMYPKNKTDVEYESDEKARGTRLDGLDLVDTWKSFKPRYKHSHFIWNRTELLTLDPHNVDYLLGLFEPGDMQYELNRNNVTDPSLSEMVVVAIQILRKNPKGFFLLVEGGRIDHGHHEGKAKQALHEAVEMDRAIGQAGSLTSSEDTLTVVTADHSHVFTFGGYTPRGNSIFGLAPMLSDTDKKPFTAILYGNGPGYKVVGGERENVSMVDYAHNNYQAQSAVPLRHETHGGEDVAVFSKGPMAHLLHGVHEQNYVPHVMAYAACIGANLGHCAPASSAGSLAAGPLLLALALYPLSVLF

[13] = molecular target: Runt-related transcription factor 1/Core-binding factor subunit beta (Homo sapiens, UniProt Q01196+Q13951); test: Confirmation of compounds inhibiting the binding between the RUNX1 Runt domain and CBFb-SMMHC via a fluorescence resonance energy transfer (FRET) assay. [Related pubchem assays (depositor defined):AID1434, AID1438, AID1496, AID1550, AID1645]; type: protein assay
Sequence of Runt-related transcription factor 1/Core-binding factor subunit beta (Q01196 whole entry, the tested form may be a part): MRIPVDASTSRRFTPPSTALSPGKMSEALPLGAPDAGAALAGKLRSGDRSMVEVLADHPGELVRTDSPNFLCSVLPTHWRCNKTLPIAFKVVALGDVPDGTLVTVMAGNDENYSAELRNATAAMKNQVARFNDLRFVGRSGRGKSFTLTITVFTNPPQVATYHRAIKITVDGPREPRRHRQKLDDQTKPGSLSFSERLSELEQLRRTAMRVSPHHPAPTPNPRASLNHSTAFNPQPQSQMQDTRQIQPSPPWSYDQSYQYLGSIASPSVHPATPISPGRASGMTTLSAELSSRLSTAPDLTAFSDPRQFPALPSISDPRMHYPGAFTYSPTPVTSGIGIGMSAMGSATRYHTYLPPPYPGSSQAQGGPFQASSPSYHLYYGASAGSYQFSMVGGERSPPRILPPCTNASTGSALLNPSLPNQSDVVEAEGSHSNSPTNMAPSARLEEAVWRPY
Sequence of Runt-related transcription factor 1/Core-binding factor subunit beta (Q13951 whole entry, the tested form may be a part): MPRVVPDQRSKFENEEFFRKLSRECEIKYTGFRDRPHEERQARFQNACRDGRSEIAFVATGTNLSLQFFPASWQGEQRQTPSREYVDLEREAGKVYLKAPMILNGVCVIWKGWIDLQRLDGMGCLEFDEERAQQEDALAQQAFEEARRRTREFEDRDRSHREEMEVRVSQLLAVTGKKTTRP

T3 sequence (Q9HC16 whole entry): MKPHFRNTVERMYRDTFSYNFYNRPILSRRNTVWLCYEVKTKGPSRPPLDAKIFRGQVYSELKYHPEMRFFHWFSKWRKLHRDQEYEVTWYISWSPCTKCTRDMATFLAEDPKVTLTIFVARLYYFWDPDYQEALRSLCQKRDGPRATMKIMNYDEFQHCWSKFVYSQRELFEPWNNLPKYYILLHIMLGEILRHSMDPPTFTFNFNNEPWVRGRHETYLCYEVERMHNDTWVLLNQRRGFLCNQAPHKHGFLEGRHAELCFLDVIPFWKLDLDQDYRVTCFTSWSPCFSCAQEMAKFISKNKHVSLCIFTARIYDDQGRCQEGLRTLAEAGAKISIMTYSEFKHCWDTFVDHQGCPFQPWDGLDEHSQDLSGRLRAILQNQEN
T1 sequence (P37231 whole entry, the tested form may be a part): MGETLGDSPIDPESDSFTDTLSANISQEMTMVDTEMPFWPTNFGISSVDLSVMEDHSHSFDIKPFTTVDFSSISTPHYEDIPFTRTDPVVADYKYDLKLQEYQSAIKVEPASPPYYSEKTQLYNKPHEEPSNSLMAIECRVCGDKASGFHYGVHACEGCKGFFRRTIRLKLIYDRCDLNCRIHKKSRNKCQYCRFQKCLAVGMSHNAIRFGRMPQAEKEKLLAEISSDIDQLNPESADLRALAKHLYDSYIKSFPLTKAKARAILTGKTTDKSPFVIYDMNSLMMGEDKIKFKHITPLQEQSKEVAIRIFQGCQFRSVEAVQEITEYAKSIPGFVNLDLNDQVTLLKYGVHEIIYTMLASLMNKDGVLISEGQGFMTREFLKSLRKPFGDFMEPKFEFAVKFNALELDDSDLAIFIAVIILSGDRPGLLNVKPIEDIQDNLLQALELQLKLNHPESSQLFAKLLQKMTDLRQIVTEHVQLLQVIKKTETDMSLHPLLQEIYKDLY
T2 sequence (P31941 whole entry): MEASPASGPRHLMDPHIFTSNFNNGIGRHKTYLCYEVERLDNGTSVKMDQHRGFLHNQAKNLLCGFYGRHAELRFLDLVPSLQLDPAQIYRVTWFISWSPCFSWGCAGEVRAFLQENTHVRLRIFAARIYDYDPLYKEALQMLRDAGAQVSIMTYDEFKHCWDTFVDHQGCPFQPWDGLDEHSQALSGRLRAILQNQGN
Sequence of Intestinal-type alkaline phosphatase (Mus musculus, UniProt P24822) (P24822 whole entry): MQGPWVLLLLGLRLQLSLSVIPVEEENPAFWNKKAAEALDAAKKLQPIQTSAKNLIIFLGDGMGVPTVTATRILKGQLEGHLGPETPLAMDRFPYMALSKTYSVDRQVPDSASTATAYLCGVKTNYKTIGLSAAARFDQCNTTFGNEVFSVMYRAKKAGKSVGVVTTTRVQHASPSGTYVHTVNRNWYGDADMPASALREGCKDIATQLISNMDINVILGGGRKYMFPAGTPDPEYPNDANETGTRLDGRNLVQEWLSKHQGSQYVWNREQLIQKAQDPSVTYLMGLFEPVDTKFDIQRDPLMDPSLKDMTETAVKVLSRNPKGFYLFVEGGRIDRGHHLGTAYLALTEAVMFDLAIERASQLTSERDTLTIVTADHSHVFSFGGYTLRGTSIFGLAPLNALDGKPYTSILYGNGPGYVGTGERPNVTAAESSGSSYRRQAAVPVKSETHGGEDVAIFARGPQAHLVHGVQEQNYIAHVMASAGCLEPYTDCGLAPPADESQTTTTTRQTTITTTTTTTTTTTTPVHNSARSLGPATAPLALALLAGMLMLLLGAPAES
Sequence of Induced myeloid leukemia cell differentiation protein Mcl-1 (Q07820 whole entry): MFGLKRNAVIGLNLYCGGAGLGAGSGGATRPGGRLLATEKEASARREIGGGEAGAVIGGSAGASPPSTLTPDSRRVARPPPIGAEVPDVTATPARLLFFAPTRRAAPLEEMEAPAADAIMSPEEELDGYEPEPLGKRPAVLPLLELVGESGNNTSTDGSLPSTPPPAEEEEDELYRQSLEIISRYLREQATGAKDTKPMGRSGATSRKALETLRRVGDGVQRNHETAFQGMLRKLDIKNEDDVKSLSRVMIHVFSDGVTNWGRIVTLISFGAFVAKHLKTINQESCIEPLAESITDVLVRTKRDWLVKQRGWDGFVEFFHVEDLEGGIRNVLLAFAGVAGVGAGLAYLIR
Sequence of Large T antigen (P03070 whole entry): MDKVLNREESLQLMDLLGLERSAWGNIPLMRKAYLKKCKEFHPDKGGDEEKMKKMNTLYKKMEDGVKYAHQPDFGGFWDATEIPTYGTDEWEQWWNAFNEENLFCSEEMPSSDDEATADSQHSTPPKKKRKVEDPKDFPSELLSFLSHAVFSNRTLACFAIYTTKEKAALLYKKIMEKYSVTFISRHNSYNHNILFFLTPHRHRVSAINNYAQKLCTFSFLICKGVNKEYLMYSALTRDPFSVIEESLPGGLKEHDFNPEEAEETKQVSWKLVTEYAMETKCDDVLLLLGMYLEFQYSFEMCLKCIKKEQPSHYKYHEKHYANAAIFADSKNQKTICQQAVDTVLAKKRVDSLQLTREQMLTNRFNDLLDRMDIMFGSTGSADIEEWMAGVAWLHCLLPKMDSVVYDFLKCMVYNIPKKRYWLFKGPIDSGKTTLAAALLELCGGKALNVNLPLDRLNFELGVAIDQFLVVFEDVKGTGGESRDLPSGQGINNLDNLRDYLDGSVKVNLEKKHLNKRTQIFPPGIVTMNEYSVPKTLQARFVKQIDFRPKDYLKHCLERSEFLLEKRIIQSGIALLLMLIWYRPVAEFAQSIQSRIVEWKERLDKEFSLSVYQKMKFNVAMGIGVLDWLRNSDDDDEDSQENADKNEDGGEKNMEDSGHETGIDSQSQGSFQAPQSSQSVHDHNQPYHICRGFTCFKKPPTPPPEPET
Sequence of Intestinal-type alkaline phosphatase (Homo sapiens, UniProt P09923) (P09923 whole entry): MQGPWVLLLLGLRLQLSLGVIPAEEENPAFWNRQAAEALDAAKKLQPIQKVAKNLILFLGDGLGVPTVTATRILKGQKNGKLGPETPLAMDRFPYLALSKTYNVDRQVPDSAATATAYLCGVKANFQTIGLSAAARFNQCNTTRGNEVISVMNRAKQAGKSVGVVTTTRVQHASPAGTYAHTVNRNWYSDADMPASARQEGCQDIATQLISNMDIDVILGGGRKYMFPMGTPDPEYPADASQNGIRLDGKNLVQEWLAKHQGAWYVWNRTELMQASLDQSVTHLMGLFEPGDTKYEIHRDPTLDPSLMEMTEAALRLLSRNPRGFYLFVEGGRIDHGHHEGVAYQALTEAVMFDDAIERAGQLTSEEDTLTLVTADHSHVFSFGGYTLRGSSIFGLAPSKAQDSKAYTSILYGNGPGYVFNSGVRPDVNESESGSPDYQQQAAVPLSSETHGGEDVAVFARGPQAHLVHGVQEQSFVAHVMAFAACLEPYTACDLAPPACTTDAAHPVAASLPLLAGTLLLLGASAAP
Sequence of Peroxisome proliferator-activated receptor alpha (Q07869 whole entry): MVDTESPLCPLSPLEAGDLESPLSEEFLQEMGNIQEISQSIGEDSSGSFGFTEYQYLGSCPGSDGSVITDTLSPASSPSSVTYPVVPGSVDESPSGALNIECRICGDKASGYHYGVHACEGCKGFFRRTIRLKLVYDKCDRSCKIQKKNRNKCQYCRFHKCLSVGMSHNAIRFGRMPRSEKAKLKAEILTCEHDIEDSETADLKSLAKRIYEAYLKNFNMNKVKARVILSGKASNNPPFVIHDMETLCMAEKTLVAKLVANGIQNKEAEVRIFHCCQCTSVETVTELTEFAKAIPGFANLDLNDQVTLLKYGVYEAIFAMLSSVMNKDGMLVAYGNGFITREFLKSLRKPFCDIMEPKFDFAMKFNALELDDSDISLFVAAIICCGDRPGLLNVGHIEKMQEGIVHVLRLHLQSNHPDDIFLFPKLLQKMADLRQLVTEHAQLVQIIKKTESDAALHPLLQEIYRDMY

With `O=C(O)CCN1C(=O)/C(=C\c2cccc(OCc3ccccc3)c2)SC1=S` the IC50 [1] was 0.276 µM (active), the EC50 [2] was > 3 µM (inactive) and the EC50 [3] was 1.5 µM (active).

`O=C1NC(=S)NC(=O)C1=Cc1ccc2c(c1)CCN2CCCCl` was tested, and the IC50 [4] was 28.8 µM (active), the IC50 [5] was 6.63 µM (active) and the IC50 [6] was 2.91 µM (active). For the same compound, the EC50 [7] was 96.3 µM (active), the EC50 [8] was 76.6 µM (active) and the IC50 [9] was 4.14 µM (active). The IC50 [10] was > 54 µM (active), the IC50 [11] was 9.27 µM (active) and the EC50 [12] was 55.5 µM (active).

With `CCc1ccc(S(=O)(=O)Nc2ccc(-c3nc4cccnc4s3)cc2)s1` the IC50 [13] was > 100 µM (inactive).
